# Marks after values point to notes of the source that are not given here.
# Assays:
# [1] = Pharmacokinetics of low dose suramin in lung cancer patients (phase I); type: in vivo, human
# Description: This method was then verified prospectively in three additional patients (see Example IV).
# However, the CL was lower in females compared to males.
# [2] = test system: human prostate PC3 xenograft tumors; test: Non-apoptotic and apoptotic cell counts in histologic sections of residual PC3 tumors; type: in vivo, immunodeficient mice; conditions: mean ± SD
# Protocol: Because a post-treatment residual tumor consisted of apoptotic and non-apoptotic cells, the effects of different treatments on the fractions of non-apoptotic (and therefore not committed to death) and apoptotic (dead or committed) cells were evaluated. Briefly, residual tumors were removed from animals after termination of treatment, and histologic tumor sections were prepared. Tumor sections were examined microscopically under 400× magnification. For each tumor, at least 4 sections were evaluated. Apoptotic cells were identified by their characteristic morphologies, i.e., presence of apoptotic bodies, condensed nuclei and fragmented nuclei.
# [3] = test system: human prostate PC3 xenograft tumors; test: Antitumor activity in subcutaneous human prostate PC3 xenograft (tumor size over time); type: in vivo, immunodeficient mice
# Protocol: The dose of paclitaxel was 15 mg/kg and was given twice weekly for three weeks. […] Example 1 further expounds on FIG. 1.
# The relevant tumor model used was human prostate PC3 xenograft implanted subcutaneously in immunodeficient mice. […] The dose of paclitaxel was 15 mg/kg and was given twice weekly for three weeks.
# in vivo = conditions: mouse
# cell cycle = conditions: constant concentrations of above 50 μM maintained for at least one or two days; cited from earlier work
# [4] = Prospective verification of the PBPK-based dosing method, plasma concentrations; type: in vivo, human; conditions: for concentration at 48 h: human, plasma, intravenous
# Protocol: Three additional non-small cell lung cancer patients were treated using the dose calculated by the PBPK-based method.
# [5] = test system: acidic and basic fibroblast growth factors (aFGF and bFGF); conditions: tumor cells, aFGF and bFGF induced resistance; cited from earlier work
# [6] = Phase I trial, toxicity of low dose suramin with paclitaxel and carboplatin; type: in vivo, human
# Description: Fifteen patients, with metastases to pleura, pericardium, adrenals, lymph nodes, liver, bone, and/or brain, were enrolled in the phase I trial. This group includes 4 stage IIIb and 11 stage IV patients. […] All patients were evaluable for pharmacokinetics and toxicity. […] Accordingly, it was not necessary to administer replacement steroid therapy to patients who received low dose suramin. This is contrary to the case where replacement steroid therapy was routinely given to patients who received high dose suramin (Dorr and Von Hoff).
# [7] = Population-based pharmacokinetic (PBPK) analysis of low dose suramin, NONMEM
# Description: The first step is to define the appropriate error model for the pharmacokinetic parameters of interest. […] Only the covariates whose elimination results in significant deterioration in model performance are included in the final model (referred to as Population Model).
# The PBPK for a one-compartment model depicting plasma concentrations as a function of clearance (CL) and volume of distribution (V) is as follows: • where Cij is the predicted plasma concentration at a particular time time i for a patient j.
# Error functions were used to describe the random deviations between model-predicted and observed data for individual pharmacokinetic parameters. Because the objective was to identify the dose, which can be calculated based on CL and V, the analysis focused on these two parameters. […] CLj=CL^typ*(1+ηCL) Eq. 2 Vj=V^typ*(1+ηV) Eq. 3 where ηCL and ηV are random values normally distributed around a mean of zero with a variance of ω^2.
# Multiple plasma concentration-time data points were used in PBPK analysis. These time points were 18, 24, 48 and 72 hours after the first treatment, 72 hours and immediately prior to next treatment, and 48 and 72 hours after second and subsequent treatments. The relationship between observed plasma concentrations and PBPK-predicted values (residual variability) is depicted by Equation 4. Yij=Cij*(1+ε1ij) Eq. 4 where Yij and Cij are the observed and predicted concentrations of the j^th individual at the i^th sampling time. ε1ij is the residual errors with a mean of zero and a variance of σ^2. The above equations used an error function in the form of (1+error), which represents the proportional error model where the coefficient of variation is constant and independent of the size of the fixed effect parameter. […] Model Building: Identification of Significant Covariates
# The contribution of ten covariates to the inter-individual variability in CL and V was studied. These covariates were age, gender, weight, ideal body weight, height, body surface area (BSA), creatinine concentration, creatinine clearance (CrCL), and serum albumin concentration. Linear regression analysis was used to examine the relationships between covariates and pharmacokinetic parameters in individual patients.
# To determine whether a covariate should be incorporated into the model, the log likelihood ratio test was used and the chi-square χ^2 values were calculated by taking the difference in the objective function values of the models, obtained with or without adding the candidate covariate.
# CL^typ=(θ1*BSA+θ2*CrCL+θ3)*(1−θ4) Eq. 7 V^typ=θ5*BSA^2+θ6 Eq. 8 […]
# To obtain estimates for k^typ, the k values for individual patients were calculated by substituting their corresponding BSA values into Equations 13 and 14.
# [8] = Literature, cited from earlier work
# [9] = paclitaxel alone 15 mg/kg twice weekly for three weeks
# [10] = high dose suramin regimen 200 mg/kg then 5 x 130 mg/kg over three weeks, combination: plus paclitaxel 15 mg/kg
# [11] = low dose suramin regimen 10 mg/kg twice weekly for three weeks, combination: plus paclitaxel 15 mg/kg
# [12] = Patient 1, cycle 1, BSA 1.45, dose 263 mg
# [13] = Patient 1, cycles 3 to 6, dose 151-156 mg
# [14] = Patient 2, cycle 1, BSA 1.67, dose 210 mg
# [15] = Patient 2, cycles 2 to 6, dose 227-257 mg
# [16] = Patient 3, cycle 1, BSA 1.83, dose 230 mg
# [17] = Population Model, first 12 patients
# [18] = high dose suramin >2,000 mg per m^2
structure (smiles),measurement,setting,value
N.N.O=C([O-])C1(C(=O)[O-])CCC1.[Pt+2] [carboplatin],areas-under-plasma concentration-time curves attained in the first 48 hours after drug administration,[1]; first six patients,> 99%
"CC(=O)O[C@H]1C(=O)[C@@]2(C)[C@H]([C@H](OC(=O)c3ccccc3)[C@]3(O)C[C@H](OC(=O)[C@H](O)[C@@H](NC(=O)c4ccccc4)c4ccccc4)C(C)=C1C3(C)C)[C@]1(OC(C)=O)CO[C@@H]1C[C@@H]2O [Paclitaxel, paclitaxel]",areas-under-plasma concentration-time curves attained in the first 48 hours after drug administration,"[1]; human, in vivo",> 92%
same,Number of apoptotic cells in a 400x field,[2]; [9],30 ± 17
same,Number of non-apoptotic cells in a 400x field,[2]; [9],14 ± 10
same,antitumor effect (tumor growth),"[3]; paclitaxel alone 15 mg/kg twice weekly for three weeks, p<0.05 vs control",suppressed tumor growth
same,concentration at 5 min,in vivo,~7000 ng/mL
same,concentration at 5 h,in vivo,200 ng/mL
same,concentration at 6 h,in vivo,< 100 ng/mL
Cc1ccc(C(=O)Nc2ccc(S(=O)(=O)O)c3cc(S(=O)(=O)O)cc(S(=O)(=O)O)c23)cc1NC(=O)c1cccc(NC(=O)Nc2cccc(C(=O)Nc3cc(C(=O)Nc4ccc(S(=O)(=O)O)c5cc(S(=O)(=O)O)cc(S(=O)(=O)O)c45)ccc3C)c2)c1 [suramin],half-life,"[1]; both sexes, human, in vivo, Alpha half-life",4.4 h
same,half-life,"[1]; both sexes, human, in vivo, Beta half-life",264 h
same,maximum inter-individual variability of clearance (CL),"[1]; both, human, in vivo",182%
same,inter-individual variability of clearance (CL),"[1]; female, human, in vivo",2%
same,half-life,"[1]; female, human, in vivo, Alpha half-life",4.6 ± 2 h
same,half-life,"[1]; female, human, in vivo, Beta half-life",336 h
same,area under the terminal phase as share of the total area-under-curve,"[1]; human, in vivo",~90%
same,concentration at 48 h,"[1]; human, in vivo",> 10 µM
same,maximum inter-subject variability in the steady state volume of distribution (Vss),"[1]; human, in vivo",153%
same,inter-individual variability of clearance (CL),"[1]; male, human, in vivo",13%
same,half-life,"[1]; male, human, in vivo, Alpha half-life",4.3 ± 0.6 h
same,half-life,"[1]; male, human, in vivo, Beta half-life",240 h
same,Number of apoptotic cells in a 400x field,[2]; [10],22 ± 9
same,Number of non-apoptotic cells in a 400x field,[2]; [10],19 ± 9
same,Number of apoptotic cells in a 400x field,[2]; [11],21 ± 16
same,Number of non-apoptotic cells in a 400x field,[2]; [11],62 ± 44
same,effect on cell cycle,cell cycle,induce cell cycle arrest
same,"Concentration, Post-paclitaxel",[4]; [12],33.95 µM
same,"Concentration, Pre-dose",[4]; [12],0.00 µM
same,"Concentration, Post-paclitaxel",[4]; [13],21.5 to 26.3 µM
same,"Concentration, Pre-dose",[4]; [13],1.87 to 3.19 µM
same,"Concentration, Post-paclitaxel",[4]; [14],40.39 µM
same,"Concentration, Pre-dose",[4]; [14],0.00 µM
same,"Concentration, Post-paclitaxel",[4]; [15],26.7 to 28.5 µM
same,"Concentration, Pre-dose",[4]; [15],2.65 to 3.81 µM
same,"Concentration, Post-paclitaxel",[4]; [16],36.02 µM
same,"Concentration, Pre-dose",[4]; [16],0.00 µM
same,maximum concentrations after administration of paclitaxel,"[4]; all 13 treatments in three patients, PBPK-calculated dose, two-thirds / one-third split",below 50 μM
same,concentration at 48 h,"[4]; Patient 1, cycle 1, BSA 1.45, dose 263 mg, read-out: Concentration, 48 hours",13.9 µM
same,concentration at 48 h,"[4]; Patient 1, cycles 3 to 6, dose 151-156 mg, read-out: Concentration, 48 hours",10.2 to 11.5 µM
same,concentration at 48 h,"[4]; Patient 2, cycle 1, BSA 1.67, dose 210 mg, read-out: Concentration, 48 hours",15.5 µM
same,concentration at 48 h,"[4]; Patient 2, cycles 2 to 6, dose 227-257 mg, read-out: Concentration, 48 hours",12.9 to 15.6 µM
same,concentration at 48 h,"[4]; Patient 3, cycle 1, BSA 1.83, dose 230 mg, read-out: Concentration, 48 hours",19.4 µM
same,concentration at 48 h,"[4]; all 13 treatments in three patients, PBPK-calculated dose, two-thirds / one-third split, read-out: 48-hour plasma concentrations",> 10 µM
same,concentrations of suramin that overcome FGF-mediated resistance to chemotherapy,[5],less than 50 μM
same,antitumor effect (tumor growth),"[3]; high dose suramin regimen: loading dose 200 mg/kg, then 5 doses of 130 mg/kg over three weeks, combination: plus paclitaxel 15 mg/kg twice weekly for three weeks",slower tumor growth
same,"tumor size, % of the initial tumor size","[3]; low dose suramin regimen: 10 mg/kg twice weekly for three weeks, combination: plus paclitaxel 15 mg/kg twice weekly for three weeks",about 800%
same,dose-limiting toxicity,"[6]; low dose suramin with paclitaxel 200 mg/m^2 and carboplatin AUC 6 every three weeks, fifteen patients",No dose-limiting toxicity
same,adrenal insufficiency,[6]; patients receiving the low dose suramin treatment,no adrenal insufficiency
same,"k^typ (elimination rate constant), Estimate",[7]; Female,0.0022 h⁻¹
same,"k^typ (elimination rate constant), Estimate",[7]; Male,0.0026 h⁻¹
same,"θ1 (effect of BSA on CL^typ), Estimate",[7]; [17],26.2 mL/h * m^2
same,"θ5 (effect of BSA^2 on V^typ), Estimate",[7]; [17],5.13 L/m^4
same,Alpha half-life,[8]; [18],5.5 ± 1.7 h
same,Beta half-life,[8]; [18],98.4 ± 52.8 h
same,Gamma half-life,[8]; [18],1870 ± 1100 h
same,Total body clearance,[8]; [18],0.01 ± 0.004 l/hr/m^2
same,Cumulative AUC,"[8]; high dose suramin, total dose >2,000 mg per m^2 per 3-week interval, calculated as 200 μg/ml x 3 weeks from the reference",101* mg-hr/ml

# Source: patent publication US8580857B2 (priority 2001, dated 2013)
